Measurements published in patent US12479799B2, “Bioconjugation reagent and methods” (Universiteit Gent, priority 2019, dated 2025).

Experiment: Glutathione exchange experiment (stability towards competing sulfhydryl groups, RP-HPLC)
Format: physicochemical
Settings: 0.1 M sodium phosphate buffer pH 7, 10 equiv of glutathione, 37° C., 96 hours
Method: This example provides a stability experiment of the compound of the invention towards competing sulfhydryl groups.
Compound 4aa was incubated in a 0.1 M sodium phosphate buffer at pH 7 with 10 equiv of glutathione, incubated at 37° C. and shaken for 96 hours. The stability was checked using RP-HPLC [Phenomenex Luna C18 column using a flow rate of 1 mL/min; H2O method: 3 minutes column flushing with 100% H2O, then a gradient from 0 to 100% ACN in 20 minutes, followed by 5 minutes of flushing with 100% ACN]. […] Representative HPLC chromatogram is shown (FIG. 7).

Row | Compound | stability of conjugated compound in presence of glutathione | GSH exchange reaction
1 | CC1(O)C(SCCO)CC(=O)N1Cc1ccccc1 (centres unmarked) [4′aa, 1-benzyl-5-hydroxy-4-((2-hydroxyethyl)thio)-5-methylpyrrolidin-2-one] | stable | 
2 | 1-benzyl-5-hydroxy-4-((2-hydroxyethyl)thio)-5-methylpyrrolidin-2-one [Compound 4aa] |  | no GSH exchange reaction takes place
